# Measured values taken from ChEMBL document CHEMBL4024706 (Eur J Med Chem, 2017).
# Legend:
# [1] = molecular target: Maternal embryonic leucine zipper kinase (Homo sapiens) (UniProt Q14680); test: Inhibition of wild-type human full length MELK (M1 to V651 residues) expressed in bacterial expression system assessed as residual activity at 1 uM by Kinomescan method relative to control
# [2] = molecular target: SRSF protein kinase 3 (Homo sapiens) (UniProt Q9UPE1); test: Inhibition of wild-type human partial length SRPK3 (P41 to P567 residues) expressed in bacterial expression system assessed as residual activity at 1 uM by Kinomescan method relative to control
# [3] = molecular target: Interleukin-1 receptor-associated kinase 4 (Homo sapiens) (UniProt Q9NWZ3); test: Inhibition of wild-type human partial length IRAK4 (M1 to S460 residues) expressed in mammalian expression system assessed as residual activity at 1 uM by Kinomescan method relative to control
# [4] = molecular target: Vascular endothelial growth factor receptor 1 (Homo sapiens) (UniProt P17948); test: Inhibition of wild-type human partial length FLT1 (R781 to F1239 residues) expressed in bacterial expression system assessed as residual activity at 1 uM by Kinomescan method relative to control
# [5] = molecular target: Interferon-induced, double-stranded RNA-activated protein kinase (Homo sapiens) (UniProt P19525); test: Inhibition of wild-type human partial length PRKR (F247 to C551 residues) expressed in bacterial expression system assessed as residual activity at 1 uM by Kinomescan method relative to control
# Chain of Interferon-induced, double-stranded RNA-activated protein kinase (Homo sapiens) (P19525 whole entry, the tested form may be a part): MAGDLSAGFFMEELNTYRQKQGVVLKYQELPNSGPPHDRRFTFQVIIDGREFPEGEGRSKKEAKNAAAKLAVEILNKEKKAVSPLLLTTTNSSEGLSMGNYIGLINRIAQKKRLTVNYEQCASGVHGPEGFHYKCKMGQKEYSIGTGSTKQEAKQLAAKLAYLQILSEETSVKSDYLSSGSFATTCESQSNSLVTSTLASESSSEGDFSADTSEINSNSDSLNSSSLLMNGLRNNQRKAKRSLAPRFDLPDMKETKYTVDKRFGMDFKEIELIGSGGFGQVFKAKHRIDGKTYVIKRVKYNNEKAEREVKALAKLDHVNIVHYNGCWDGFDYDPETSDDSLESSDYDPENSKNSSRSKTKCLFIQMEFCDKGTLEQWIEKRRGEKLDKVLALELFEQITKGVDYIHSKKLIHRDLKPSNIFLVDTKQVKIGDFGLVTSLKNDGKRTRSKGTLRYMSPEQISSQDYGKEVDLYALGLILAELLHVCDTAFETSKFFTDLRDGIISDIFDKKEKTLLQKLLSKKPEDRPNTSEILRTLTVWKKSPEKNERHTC
# [6] = molecular target: Ephrin type-A receptor 1 (Homo sapiens) (UniProt P21709); test: Inhibition of wild-type human partial length EPHA1 (V588 to I913 residues) expressed in bacterial expression system assessed as residual activity at 1 uM by Kinomescan method relative to control
# Chain of Ephrin type-A receptor 1 (Homo sapiens) (P21709 whole entry, the tested form may be a part): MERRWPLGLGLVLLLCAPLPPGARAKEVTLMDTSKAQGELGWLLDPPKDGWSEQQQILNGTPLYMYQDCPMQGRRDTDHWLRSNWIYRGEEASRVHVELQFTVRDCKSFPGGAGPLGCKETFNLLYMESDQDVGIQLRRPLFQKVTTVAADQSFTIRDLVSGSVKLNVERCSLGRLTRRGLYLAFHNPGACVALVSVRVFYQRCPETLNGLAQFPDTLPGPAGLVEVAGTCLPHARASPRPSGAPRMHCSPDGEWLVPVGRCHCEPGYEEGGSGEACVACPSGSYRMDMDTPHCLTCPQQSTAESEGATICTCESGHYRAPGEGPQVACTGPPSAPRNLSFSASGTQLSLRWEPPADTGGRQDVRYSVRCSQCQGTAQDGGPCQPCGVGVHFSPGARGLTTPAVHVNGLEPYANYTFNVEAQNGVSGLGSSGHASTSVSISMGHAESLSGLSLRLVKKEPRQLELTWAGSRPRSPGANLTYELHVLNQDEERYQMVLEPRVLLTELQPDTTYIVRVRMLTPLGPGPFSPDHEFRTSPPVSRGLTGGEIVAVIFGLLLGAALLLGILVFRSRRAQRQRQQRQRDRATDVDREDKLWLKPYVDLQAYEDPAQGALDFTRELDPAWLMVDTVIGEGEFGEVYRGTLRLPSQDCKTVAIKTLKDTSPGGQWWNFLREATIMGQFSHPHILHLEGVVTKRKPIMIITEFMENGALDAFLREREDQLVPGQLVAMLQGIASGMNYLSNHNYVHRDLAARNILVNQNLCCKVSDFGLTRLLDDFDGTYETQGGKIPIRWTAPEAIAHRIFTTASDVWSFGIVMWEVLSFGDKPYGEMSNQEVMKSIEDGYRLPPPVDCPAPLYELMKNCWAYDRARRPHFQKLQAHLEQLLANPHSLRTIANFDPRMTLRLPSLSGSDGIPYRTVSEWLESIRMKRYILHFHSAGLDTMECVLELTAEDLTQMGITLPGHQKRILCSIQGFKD
# [7] = molecular target: Receptor tyrosine-protein kinase erbB-4 (Homo sapiens) (UniProt Q15303); test: Inhibition of wild-type human partial length ERBB4 (L690 to K994 residues) expressed in bacterial expression system assessed as residual activity at 1 uM by Kinomescan method relative to control
# [8] = molecular target: Myosin-IIIb (Homo sapiens) (UniProt Q8WXR4); test: Inhibition of wild-type human partial length MYO3B (M1 to D357 residues) expressed in bacterial expression system assessed as residual activity at 1 uM by Kinomescan method relative to control
# [9] = molecular target: Cyclin-dependent kinase 9 (Homo sapiens) (UniProt P50750); test: Inhibition of wild-type human full length CDK9 (M1 to F372 residues) expressed in bacterial expression system assessed as residual activity at 1 uM by Kinomescan method relative to control
# Chain of Cyclin-dependent kinase 9 (Homo sapiens) (P50750 whole entry, the tested form may be a part): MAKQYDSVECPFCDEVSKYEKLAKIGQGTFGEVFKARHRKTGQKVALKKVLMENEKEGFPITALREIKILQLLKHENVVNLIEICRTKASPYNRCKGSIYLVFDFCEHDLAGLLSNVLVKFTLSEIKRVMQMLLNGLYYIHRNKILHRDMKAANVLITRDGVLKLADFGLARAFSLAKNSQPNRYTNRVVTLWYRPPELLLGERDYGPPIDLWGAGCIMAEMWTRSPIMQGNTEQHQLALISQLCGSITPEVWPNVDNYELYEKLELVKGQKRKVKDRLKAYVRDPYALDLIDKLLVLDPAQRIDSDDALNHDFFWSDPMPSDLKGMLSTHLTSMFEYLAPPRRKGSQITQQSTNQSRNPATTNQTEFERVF
# [10] = molecular target: Serine/threonine-protein kinase PAK 4 (Homo sapiens) (UniProt O96013); test: Inhibition of wild-type human partial length PAK4 (Q144 to R438 residues) expressed in bacterial expression system assessed as residual activity at 1 uM by Kinomescan method relative to control
# [11] = test system: Mast/stem cell growth factor receptor Kit (Homo sapiens), P10721 [D816H]; test: Inhibition of human partial length KIT D816H mutant (I571 to D952 residues) expressed in mammalian expression system assessed as residual activity at 1 uM by Kinomescan method relative to control
# [12] = molecular target: Ephrin type-A receptor 4 (Homo sapiens) (UniProt P54764); test: Inhibition of wild-type human partial length EPHA4 (T601 to R897 residues) expressed in bacterial expression system assessed as residual activity at 1 uM by Kinomescan method relative to control
# Chain of Ephrin type-A receptor 4 (Homo sapiens) (P54764 whole entry, the tested form may be a part): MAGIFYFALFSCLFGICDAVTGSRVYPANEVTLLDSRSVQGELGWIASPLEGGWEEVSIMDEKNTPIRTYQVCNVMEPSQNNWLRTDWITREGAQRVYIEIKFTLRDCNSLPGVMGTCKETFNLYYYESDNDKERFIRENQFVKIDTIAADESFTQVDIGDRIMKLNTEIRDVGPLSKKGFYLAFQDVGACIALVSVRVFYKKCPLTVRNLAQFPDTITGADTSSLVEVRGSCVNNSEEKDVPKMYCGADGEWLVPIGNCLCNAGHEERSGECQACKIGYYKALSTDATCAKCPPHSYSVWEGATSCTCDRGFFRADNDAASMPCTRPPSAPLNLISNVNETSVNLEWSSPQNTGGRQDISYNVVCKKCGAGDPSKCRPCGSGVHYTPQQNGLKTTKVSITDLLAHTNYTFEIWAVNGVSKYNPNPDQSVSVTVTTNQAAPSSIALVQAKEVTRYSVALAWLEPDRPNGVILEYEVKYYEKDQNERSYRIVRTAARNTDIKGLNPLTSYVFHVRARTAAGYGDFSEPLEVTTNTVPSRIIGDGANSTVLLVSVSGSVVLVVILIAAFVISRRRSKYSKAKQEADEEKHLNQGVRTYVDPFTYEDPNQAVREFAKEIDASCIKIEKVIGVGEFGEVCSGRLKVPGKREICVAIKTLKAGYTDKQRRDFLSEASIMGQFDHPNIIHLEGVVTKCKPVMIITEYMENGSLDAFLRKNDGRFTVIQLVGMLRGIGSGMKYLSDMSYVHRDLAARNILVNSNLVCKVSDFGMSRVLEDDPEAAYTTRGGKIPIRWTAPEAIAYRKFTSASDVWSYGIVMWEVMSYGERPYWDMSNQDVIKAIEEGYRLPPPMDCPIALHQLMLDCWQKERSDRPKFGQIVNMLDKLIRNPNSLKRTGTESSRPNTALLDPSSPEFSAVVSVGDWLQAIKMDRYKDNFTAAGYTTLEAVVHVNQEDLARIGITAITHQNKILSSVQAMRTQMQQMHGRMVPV
# [13] = molecular target: Serine/threonine-protein kinase DCLK1 (Homo sapiens) (UniProt O15075); test: Inhibition of wild-type human partial length DCAMKL1 (L270 to A662 residues) expressed in mammalian expression system assessed as residual activity at 1 uM by Kinomescan method relative to control
# [14] = test system: Fibroblast growth factor receptor 3 (Homo sapiens), P22607 [G697C]; test: Inhibition of human partial length FGFR3 G697C mutant (R442 to S771 residues) expressed in bacterial expression system assessed as residual activity at 1 uM by Kinomescan method relative to control
# [15] = molecular target: Insulin-like growth factor 1 receptor (Homo sapiens) (UniProt P08069); test: Inhibition of wild-type human partial length IGF1R (L972 to D1294 residues) expressed in bacterial expression system assessed as residual activity at 1 uM by Kinomescan method relative to control
# [16] = molecular target: Serine/threonine-protein kinase PknB (Mycobacterium tuberculosis) (UniProt P9WI81); test: Inhibition of wild-type Mycobacterium tuberculosis H37Rv ATCC 25618 partial length PKNB (M1 to G279 residues) expressed in mammalian expression system assessed as residual activity at 1 uM by Kinomescan method relative to control
# [17] = molecular target: Tyrosine-protein kinase ABL1 (Homo sapiens) (UniProt P00519); test: Inhibition of wild-type human non-phosphorylated ABL1 (S229 to K512 residues) expressed in mammalian expression system assessed as residual activity at 1 uM by Kinomescan method relative to control
# [18] = molecular target: Serine/threonine-protein kinase Nek7 (Homo sapiens) (UniProt Q8TDX7); test: Inhibition of wild-type human full length NEK7 (M1 to S302 residues) expressed in bacterial expression system assessed as residual activity at 1 uM by Kinomescan method relative to control
# Chain of Serine/threonine-protein kinase Nek7 (Homo sapiens) (Q8TDX7 whole entry, looked up, the tested form may be a part): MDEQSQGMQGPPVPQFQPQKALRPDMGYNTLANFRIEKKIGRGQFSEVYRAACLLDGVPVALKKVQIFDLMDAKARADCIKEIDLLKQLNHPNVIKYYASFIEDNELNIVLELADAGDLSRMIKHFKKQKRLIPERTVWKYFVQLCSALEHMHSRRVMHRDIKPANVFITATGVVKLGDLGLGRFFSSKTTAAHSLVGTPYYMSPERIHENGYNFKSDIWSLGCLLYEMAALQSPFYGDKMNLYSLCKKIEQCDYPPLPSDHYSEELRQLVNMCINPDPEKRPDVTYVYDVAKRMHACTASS
# [19] = molecular target: Activin receptor type-1 (Homo sapiens) (UniProt Q04771); test: Inhibition of wild-type human ACVR1 (C188 to C509 residues) expressed in bacterial expression system assessed as residual activity at 1 uM by Kinomescan method relative to control
# [20] = species: Homo sapiens; test: Inhibition of human partial length FLT3 ITD mutant expressed in bacterial expression system assessed as residual activity at 1 uM by Kinomescan method relative to control
# [21] = molecular target: Calcium/calmodulin-dependent protein kinase type II subunit beta (Homo sapiens) (UniProt Q13554); test: Inhibition of wild-type human partial length CAMK2B (M1 to Q380 residues) expressed in bacterial expression system assessed as residual activity at 1 uM by Kinomescan method relative to control
# Chain of Calcium/calmodulin-dependent protein kinase type II subunit beta (Homo sapiens) (Q13554 whole entry, the tested form may be a part): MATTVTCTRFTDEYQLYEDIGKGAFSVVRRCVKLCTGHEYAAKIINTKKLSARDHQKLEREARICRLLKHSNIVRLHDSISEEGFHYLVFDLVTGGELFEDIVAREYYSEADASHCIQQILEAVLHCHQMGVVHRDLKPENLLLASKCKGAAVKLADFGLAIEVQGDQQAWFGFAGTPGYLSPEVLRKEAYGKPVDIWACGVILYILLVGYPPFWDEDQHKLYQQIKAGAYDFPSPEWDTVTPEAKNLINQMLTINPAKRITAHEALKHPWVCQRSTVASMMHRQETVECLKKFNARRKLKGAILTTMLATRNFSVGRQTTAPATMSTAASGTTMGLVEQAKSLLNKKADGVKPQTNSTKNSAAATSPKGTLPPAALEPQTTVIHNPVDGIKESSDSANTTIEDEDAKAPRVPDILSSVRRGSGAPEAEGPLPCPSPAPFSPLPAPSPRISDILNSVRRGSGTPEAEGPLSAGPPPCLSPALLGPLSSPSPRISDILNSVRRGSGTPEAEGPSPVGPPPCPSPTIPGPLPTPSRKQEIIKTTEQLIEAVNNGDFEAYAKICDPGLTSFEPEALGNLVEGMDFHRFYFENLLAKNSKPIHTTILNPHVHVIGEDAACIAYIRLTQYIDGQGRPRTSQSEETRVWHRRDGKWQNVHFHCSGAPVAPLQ
# [22] = molecular target: RAC-beta serine/threonine-protein kinase (Homo sapiens) (UniProt P31751); test: Inhibition of wild-type human partial length AKT2 expressed in bacterial expression system assessed as residual activity at 1 uM by Kinomescan method relative to control
# [23] = molecular target: Tyrosine-protein kinase Fyn (Homo sapiens) (UniProt P06241); test: Inhibition of wild-type human partial length FYN (T243 to L534 residues) expressed in bacterial expression system assessed as residual activity at 1 uM by Kinomescan method relative to control
# Chain of Tyrosine-protein kinase Fyn (Homo sapiens) (P06241 2-537 limits assumed): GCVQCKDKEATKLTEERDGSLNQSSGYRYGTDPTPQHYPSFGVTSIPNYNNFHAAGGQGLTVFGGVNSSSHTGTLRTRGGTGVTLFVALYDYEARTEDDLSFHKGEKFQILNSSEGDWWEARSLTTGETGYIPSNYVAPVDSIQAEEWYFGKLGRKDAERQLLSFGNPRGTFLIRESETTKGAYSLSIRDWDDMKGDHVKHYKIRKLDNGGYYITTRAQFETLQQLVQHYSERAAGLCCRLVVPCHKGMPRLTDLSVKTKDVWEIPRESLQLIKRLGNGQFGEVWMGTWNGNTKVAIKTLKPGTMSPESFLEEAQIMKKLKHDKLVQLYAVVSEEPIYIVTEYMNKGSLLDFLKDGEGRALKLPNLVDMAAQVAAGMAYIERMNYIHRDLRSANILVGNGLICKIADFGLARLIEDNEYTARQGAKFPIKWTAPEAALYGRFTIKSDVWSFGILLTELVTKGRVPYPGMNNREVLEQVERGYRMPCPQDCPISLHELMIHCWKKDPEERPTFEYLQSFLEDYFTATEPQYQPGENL
# [24] = molecular target: Dual specificity mitogen-activated protein kinase kinase 3 (Homo sapiens) (UniProt P46734); test: Inhibition of wild-type human full length MEK3 (M1 to S318 residues) expressed in mammalian expression system assessed as residual activity at 1 uM by Kinomescan method relative to control
# [25] = molecular target: Serine/threonine-protein kinase SIK1 (Homo sapiens) (UniProt P57059); test: Inhibition of wild-type human partial length SIK (M1 to Y304 residues) expressed in bacterial expression system assessed as residual activity at 1 uM by Kinomescan method relative to control
# Chain of Maternal embryonic leucine zipper kinase (Homo sapiens) (Q14680 whole entry, looked up, the tested form may be a part): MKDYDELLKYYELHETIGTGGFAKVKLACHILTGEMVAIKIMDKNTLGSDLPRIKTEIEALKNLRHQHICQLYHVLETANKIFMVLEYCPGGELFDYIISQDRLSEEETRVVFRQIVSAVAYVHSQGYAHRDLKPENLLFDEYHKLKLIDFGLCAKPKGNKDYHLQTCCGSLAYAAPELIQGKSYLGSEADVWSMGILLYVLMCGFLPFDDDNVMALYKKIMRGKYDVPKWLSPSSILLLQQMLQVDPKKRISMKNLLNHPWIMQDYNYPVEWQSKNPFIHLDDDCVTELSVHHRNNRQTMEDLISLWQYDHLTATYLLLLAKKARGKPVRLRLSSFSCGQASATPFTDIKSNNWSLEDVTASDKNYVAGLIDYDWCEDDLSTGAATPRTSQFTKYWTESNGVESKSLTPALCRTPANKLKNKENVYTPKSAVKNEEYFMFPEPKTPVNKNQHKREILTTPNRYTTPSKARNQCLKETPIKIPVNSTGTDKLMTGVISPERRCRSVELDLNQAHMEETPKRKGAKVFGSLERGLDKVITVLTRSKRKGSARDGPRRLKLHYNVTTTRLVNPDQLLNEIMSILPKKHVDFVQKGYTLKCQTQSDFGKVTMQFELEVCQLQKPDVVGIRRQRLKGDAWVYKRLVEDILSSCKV
smiles,measurement,setting,value
C=CC(=O)Nc1cc(Nc2cc(-c3cccc(NC(=O)c4ccc(C(C)(C)C)cc4)c3C)cn(C)c2=O)ccc1C(=O)N1CCOCC1,Activity,[1],98%
same,Activity,[2],81%
same,Activity,[3],100%
same,Activity,[4],97%
same,Activity,[5],100%
same,Activity,[6],100%
same,Activity,[7],95%
same,Activity,[8],86%
same,Activity,[9],99%
same,Activity,[10],94%
same,Activity,[11],94%
same,Activity,[12],83%
same,Activity,[13],95%
same,Activity,[14],100%
same,Activity,[15],92%
same,Activity,[16],100%
same,Activity,[17],100%
same,Activity,[18],95%
same,Activity,[19],97%
same,Activity,[20],90%
same,Activity,[21],100%
same,Activity,[22],95%
same,Activity,[23],73%
same,Activity,[24],100%
same,Activity,[25],93%
